# Values quoted from earlier work as cited in patent US20150216903A1, “COMPOUNDS FOR IMPROVED VIRAL TRANSDUCTION” (BLUEBIRD BIO, INC., priority 2012, published 2015).
# Columns and labels:
# HIV = settings: previous publications (Hayes 2002); cited from earlier work
# [1] = Raz, FEBS Letters 1972; cited from earlier work
Compound,effect on HIV replication (HIV),conversion upon exposure to plasma [1]
"CCCCC[C@H](O)/C=C/[C@H]1C=CC(=O)[C@@H]1C/C=C\CCCC(=O)O [PGA2, prostaglandin A2]",inhibits HIV replication,–
"CCCCC[C@H](O)/C=C/[C@H]1[C@H](O)CC(=O)[C@@H]1C/C=C\CCCC(=O)O [PGE2, prostaglandin E2]",antagonistic to HIV replication,rapidly converts to prostaglandin A2 (PGA2)
